Laboratory results from patent US8975265B2, “Substituted imidazo[1,2-a]pyrimidines and —pyridines” (Bayer Intellectual Property GmbH, priority 2010, dated 2015).
Read-outs that look alike come from different tables or passages of the source.

What was measured:
[1] = tested on: p-AKT1/2/3-S473 in KPL4 breast tumour cell line; assay: Cellular p-AKT1/2/3-S473 assay; assay type: cell-based; settings: KPL4 breast tumour cell line, 2 hours treatment; read-out: pAKT-S743 median IC50
Method in brief: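 KPL4 cells (PIK3CA H1047R, HER2 0/E, hormone independent) were seeded at 60–80% confluency, cultured overnight, then exposed to compound for 2 h at 37 °C. pAKT-S473 and total AKT measured together by MSD Akt Duplex on 20 µg extract; pAKT expressed as % of total AKT, at least duplicate with independent repeats.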

[2] = tested on: KPL-4 breast cancer cell line; assay: Tumor cell proliferation assay (CellTiter-Glo, 72 h), KPL-4; assay type: cell-based; settings: KPL4, 72h drug exposure
Method in brief: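 KPL-4 cells were treated with compound for 72 h at 37°C. Viability was measured as ATP by CellTiter-Glo luminescence, with a separate t=0 plate read after overnight attachment. A reference compound was run as standard.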

LnCAP = assay: Tumor cell proliferation assay (CellTiter-Glo, 72 h), LnCAP; assay type: cell-based; settings: Homo sapiens, 72h drug exposure
Description: Compounds were tested in a cell-based assay that measures the capacity of the compounds to inhibit tumour cell proliferation following a 72h drug exposure. Cell viability is determined using CellTiter-Glow® (CTG, Promega, cat# G7571/2/3). The CellTiter-Glo® Luminescent Cell Viability Assay is a homogeneous method to determine the number of viable cells in culture. Detection is based on using the luciferase reaction to measure the amount of ATP from viable cells. The amount of ATP in cells correlates with cell viability. Within minutes after a loss of membrane integrity, cells lose the ability to synthesize ATP, and endogenous ATPases destroy any remaining ATP; thus the levels of ATP fall precipitously.
Cells were plated at 3000-5000 cells/well (depending on the cell lines) in 90 μL growth medium on MTPs (Corning; #3603, black plate, clear flat bottom). For each cell line assayed, cells were plated onto a separate plate for determination of […] at t=0 hour and t=72 hour time points. Following overnight incubation at 37° C., chemiluminescence values for the t=0 samples were determined after adding 10 μl medium and 100 μl CTG solution according to manufacture protocol. Plates for the t=72 hour time points were treated with compounds diluted into growth medium at ten times final concentration added in 10 μL to the cell culture plate. Cells were then incubated for 72 hours at 37° C. Chemiluminescence values for the t=72 hour samples were determined. […] Experiments were controlled using a reference compound as standard.

[3] = molecular target: His-tagged human recombinant kinase full-length Akt1 (Homo sapiens (Human), UniProt P31749); assay: Akt1 kinase assay (TR-FRET); assay type: biochemical; settings: 10 μM ATP; read-out: Akt1, median IC50
Chain of His-tagged human recombinant kinase full-length Akt1 (P31749 whole entry): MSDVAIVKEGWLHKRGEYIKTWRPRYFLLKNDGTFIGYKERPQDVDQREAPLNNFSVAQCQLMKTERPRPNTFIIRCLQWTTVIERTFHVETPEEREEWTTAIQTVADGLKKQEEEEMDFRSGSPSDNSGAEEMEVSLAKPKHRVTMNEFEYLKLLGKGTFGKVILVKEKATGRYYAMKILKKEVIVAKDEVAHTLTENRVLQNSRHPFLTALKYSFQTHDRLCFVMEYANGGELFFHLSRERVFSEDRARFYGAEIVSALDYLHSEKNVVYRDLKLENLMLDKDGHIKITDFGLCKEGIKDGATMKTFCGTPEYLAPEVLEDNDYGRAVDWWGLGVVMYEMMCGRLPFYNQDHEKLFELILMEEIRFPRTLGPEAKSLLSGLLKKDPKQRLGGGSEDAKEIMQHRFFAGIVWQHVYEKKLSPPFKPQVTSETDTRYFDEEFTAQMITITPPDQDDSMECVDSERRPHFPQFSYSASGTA
Method in brief: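 Full-length His-tagged Akt1 (about 0.05 ng/μl final) preincubated 15 min at 22 °C with compound in 50 mM TRIS/HCl pH 7.5, 5 mM MgCl2, 1 mM DTT, 0.02% Triton X-100; biotinylated peptide substrate. Phosphopeptide detected by TR-FRET (Eu-chelate antibody to streptavidin-XL665) after 1 h at 22 °C.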

[4] = tested on: p-4E-BP1-T70 in KPL4 breast tumour cell line; assay: Cellular p-4E-BP1-T70 assay; assay type: cell-based; settings: 2 hours treatment, read-out: P4EBP1-T70 median IC50
Description: The molecular mechanism of action was investigated in a set of experiments to assess the inhibition of the PI3K-AKT-mTOR pathway in responsive cell lines such as KPL4 breast tumour cell line (PIK3CAH1047R, HER20/E and hormone independent). The phospho-substrates of PI3K-AKT-mTOR axis were used as the read-outs to reflect pathway inhibition. Cells were seeded at 60-80% confluency per well in 96-well cell culture plates. After overnight incubation at 37° C. 5% CO2, cells were treated with compounds and vehicle at 37° C. for 2 hours. Thereafter, cells were lysed in 150 μl lysis buffer and the levels of phospho-AKT at T308 and S473 and p-4E-BP1 at T70 sites were determined with the corresponding AlphaScreen® SureFire® assay kits (Perkin Elmer: 4E-BP1 Assay Kit Cat # TRG4E2S10K; Akt 1/2/3 p-Ser 473 #TGRA4S500 and Akt 1/2/3 p-Thr 308 #TGRA3S500 as well as IgG detection Kit #6760617M) as described in the manuals. All measurements where at least done in duplicates and confirmed by independent repetition.

[5] = tested on: p-AKT S473 in PC3 human prostate tumours; assay: In vivo xenograft mechanism of action study; parameters: species or system athymic nude mice; settings: Mus musculus, po, PC3 tumours in nude mice, once 50 mg/kg p.o.
Description: In Vivo Xenograft Mechanism of Action Study
To this extent PC3 human prostate tumours were xenografted onto athymic nude mice. PC3 tumour cells were cultivated according to ATCC protocols in recommended media contained 10% FCS and harvested for transplantation in a subconfluent (70%) state. 3×10^6 tumour cells suspended in 50% Matrigel were subcutaneously implantated into the inguinal region of male mice. Tumours were allowed to grow to the predetermined size of 60-80 mm^2. When the tumours were approximately in size, the animals were randomized to treatment and control groups (groups size: 9 animals) and treatment was started. Animals were treated once with 50 mg/kg compound or vehicle per oral administration (p.o.) carried out via a gastric tube. Treatment of each animal was based on individual body weight. At 2, 5 and 24 hours post treatment 3 animals each were sacrificed and the PC3 tumours excised. Tumour samples of approximately 5×5×5 mm were lysed on ice in MSD lysis buffer in the presence of protease and phosphatase inhibitors using Tissue Lyzer (Qiagen, Germany). The levels of p-AKT S473 in extracts from tumour tissue were analysed in an ELISA based assay. This assay is based on the “Akt Duplex” of the MULTI-SPOT® Assay System (Fa. Meso Scale Discovery, Cat# N41100B-1) following manufacturers instructions. Each assay used 20 μg of protein extract and measured total AKT and p-AKT content simultaneously in one well. All measurements where at least done in duplicates and confirmed by independent repetition.
Values for P-AKT are expressed as percentage of P-AKT level compared to total-AKT content of the extracts. Vehicle treated tumours were analyzed to determine the basal level of P-AKT in this model and used as a normalization control to determine the % P-AKT relative to vehicle levels.

MCF7 = assay: Tumor cell proliferation assay (CellTiter-Glo, 72 h), MCF7; assay type: cell-based; settings: Homo sapiens, 72h drug exposure
Method in brief: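 Cells seeded at 3000–5000/well and incubated overnight, then exposed to compound for 72 h at 37 °C. Viability measured by CellTiter-Glo ATP luminescence, with a separate plate read at t=0.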

[6] = 2 hours post treatment, read-out: P-AKT % relative to control at 2 hours
[7] = 5 hours post treatment, read-out: P-AKT % relative to control at 5 hours

NC1(c2ccc(-c3nc4cc(-c5cnc[nH]5)ccn4c3-c3ccccc3)cc2)CCC1 [Example 2-115]
IC50 [1]: 0.192 µM | IC50 [2]: 1.8 µM | IC50 (LnCAP): 1.7 µM

CCOC(=O)c1ccc2nc(-c3ccc(C4(N)CCC4)cc3)c(-c3ccccc3)n2c1 [Example 2-143]
IC50 [3]: 0.093 µM | IC50 [1]: 0.901 µM | IC50 [4]: 1.21 µM | IC50 [2]: 9.5 µM | IC50 (LnCAP): 1.8 µM

NC1(c2ccc(-c3nc4cc(C(=O)NO)ccn4c3-c3ccccc3)cc2)CCC1 [Example 2-127]
IC50 [3]: 0.132 µM | IC50 [1]: 1.68 µM | IC50 [4]: 4.87 µM | IC50 [2]: 5.4 µM | IC50 (LnCAP): 1.2 µM

NC1(c2ccc(-c3nc4ccc(-c5cccnc5O)cn4c3-c3ccccc3)cc2)CCC1 [Example 11-0, 3-{2-[4-(1-amino-cyclobutyl)-phenyl]-3-phenyl-imidazo[1,2-a]pyridin-6-yl}-pyridin-2-ol]
IC50 [3]: 1.51 µM | IC50 [1]: 0.588 µM | IC50 [2]: 2.2 µM | IC50 (LnCAP): 2 µM

NC1(c2ccc(-c3nc4c(F)cc(F)cn4c3-c3ccccc3)cc2)CCC1 [Example 2-75]
IC50 [3]: 0.052 µM | IC50 [1]: 0.079 µM | IC50 [4]: 1.6 µM | IC50 [2]: 1.1 µM | response vs control in vivo at 50 mg/kg [5, 6]: 5.5% | response vs control in vivo at 50 mg/kg [5, 7]: 6.2% | IC50 (MCF7): 0.6 µM

Cc1cc(-c2ccc3nc(-c4ccc(C5(N)CCC5)cc4)c(-c4ccccc4)n3c2)[nH]n1 [Example 12-0, 1-{4-[6(5-methyl-2H-pyrazol-3-yl)-3-phenyl-imidazo[1,2-a]pyridin-2-yl]-phenyl}-cyclobutylamine]
IC50 [3]: 0.688 µM | IC50 [1]: 0.339 µM | IC50 [2]: 1.9 µM | IC50 (LnCAP): 1.7 µM

CCNC(=O)c1ccn2c(-c3ccccc3)c(-c3ccc(C4(N)CCC4)cc3)nc2c1 [Example 2-126]
IC50 [3]: 0.601 µM | IC50 [1]: 0.125 µM | IC50 [2]: 1.6 µM | IC50 (LnCAP): 1 µM

CC(=O)c1ccc2nc(-c3ccc(C4(N)CCC4)cc3)c(-c3ccccc3)n2c1 [Example 2-144]
IC50 [3]: 0.055 µM | IC50 [1]: 0.091 µM | IC50 [4]: 1.31 µM | IC50 [2]: 1.7 µM | response vs control in vivo at 50 mg/kg [5, 6]: 6.3% | response vs control in vivo at 50 mg/kg [5, 7]: 8% | IC50 (MCF7): 1.3 µM

NC(=O)c1cc(Cl)c2nc(-c3ccc(C4(N)CCC4)cc3)c(-c3ccccc3)n2c1 [Example 6-1, 2-[4-(1-amino-cyclobutyl)-phenyl]-8-chloro-3-phenyl-imidazo[1,2-a]pyridine-6-carboxylic acid amide]
IC50 [3]: 0.012 µM | IC50 [1]: 0.005 µM | IC50 [2]: 0.3 µM | response vs control in vivo at 50 mg/kg [5, 6]: 7.7% | response vs control in vivo at 50 mg/kg [5, 7]: 7.5% | IC50 (LnCAP): 0.4 µM | IC50 (MCF7): 0.3 µM

Cc1cc(C(N)=O)c2nc(-c3ccc(C4(N)CCC4)cc3)c(-c3ccccc3)n2c1 [Example 2-96]
IC50 [3]: 0.893 µM | IC50 [1]: 1.61 µM | IC50 [4]: 1.84 µM | IC50 [2]: 10 µM | response vs control in vivo at 50 mg/kg [5, 6]: 12.2% | response vs control in vivo at 50 mg/kg [5, 7]: 11.4% | IC50 (MCF7): 10 µM

Cn1cncc1-c1ccc2nc(-c3ccc(C4(N)CCC4)cc3)c(-c3ccccc3)n2c1 [Example 2-133]
IC50 [1]: 0.244 µM | IC50 [2]: 2 µM | IC50 (LnCAP): 1.7 µM

NC(=O)c1cccn2c(-c3ccccc3)c(-c3ccc(C4(N)CCC4)cc3)nc12 [Example 6-0, 2-[4-(1-amino-cyclobutyl)-phenyl]-3-phenyl-imidazo[1,2-a]pyridine-8-carboxylic acid amide]
IC50 [3]: 0.058 µM | IC50 [1]: 0.016 µM | IC50 [4]: 0.62 µM | IC50 [2]: 0.8 µM | response vs control in vivo at 50 mg/kg [5, 6]: 5.8% | response vs control in vivo at 50 mg/kg [5, 7]: 6% | IC50 (MCF7): 0.4 µM

NC1(c2ccc(-c3nc4cc(-c5cccnc5)ccn4c3-c3ccccc3)cc2)CCC1 [Example 2-110]
IC50 [3]: 0.129 µM | IC50 [1]: 0.041 µM | IC50 [2]: 1.7 µM | response vs control in vivo at 50 mg/kg [5, 6]: 10.2% | response vs control in vivo at 50 mg/kg [5, 7]: 16.4% | IC50 (LnCAP): 0.5 µM | IC50 (MCF7): 0.7 µM

CCc1ccn2c(-c3ccccc3)c(-c3ccc(C4(N)CCC4)cc3)nc2c1 [Example 2-21]
IC50 [3]: 1.66 µM | IC50 [1]: 0.537 µM | IC50 [2]: 2 µM | IC50 (LnCAP): 1.9 µM | IC50 (MCF7): 2 µM

Cn1cc(-c2ccc3nc(-c4ccc(C5(N)CCC5)cc4)c(-c4ccccc4)n3c2)cn1 [Example 2-134]
IC50 [3]: 0.691 µM | IC50 [1]: 0.132 µM | IC50 (LnCAP): 1.8 µM

COc1cc(C(N)=O)cn2c(-c3ccccc3)c(-c3ccc(C4(N)CCC4)cc3)nc12 [Example 1-13]
IC50 [3]: 0.024 µM | IC50 [1]: 0.035 µM | IC50 [4]: 1.02 µM | IC50 [2]: 0.9 µM | response vs control in vivo at 50 mg/kg [5, 6]: 95.7% | response vs control in vivo at 50 mg/kg [5, 7]: 152% | IC50 (LnCAP): 1.1 µM | IC50 (MCF7): 0.4 µM

COC(=O)CCc1ccn2c(-c3ccccc3)c(-c3ccc(C4(N)CCC4)cc3)nc2c1 [Example 2-125]
IC50 [3]: 3.44 µM | IC50 [1]: 3.07 µM | IC50 [2]: 3.1 µM | IC50 (LnCAP): 9.9 µM
